Test results published in the CheMixHub viscosity set.
Several values for one entry are separate records, joined by “and”; a condition that tells them apart may be missing. Equal entries are not always repeated.

Test: xn = mol fraction of the nth substance listed

ClC(Cl)Cl + CC(C)OC(C)C
298.15 K, 101 kPa
Settings	viscosity
x1 = 0.07	0.325 mPa·s
x1 = 0.12	0.35 mPa·s
x1 = 0.13	0.353 mPa·s
x1 = 0.16	0.369 mPa·s
x1 = 0.21	0.39 mPa·s
x1 = 0.26	0.413 mPa·s
x1 = 0.31	0.437 mPa·s
x1 = 0.35	0.458 mPa·s
x1 = 0.4	0.484 mPa·s
x1 = 0.46	0.507 mPa·s
x1 = 0.5	0.523 mPa·s
x1 = 0.55	0.543 mPa·s
x1 = 0.6	0.553 mPa·s
x1 = 0.65	0.565 mPa·s
x1 = 0.71	0.572 mPa·s
x1 = 0.76	0.577 mPa·s
x1 = 0.8	0.579 mPa·s
x1 = 0.85	0.581 mPa·s
x1 = 0.9	0.58 mPa·s
x1 = 0.95	0.579 mPa·s and 0.58 mPa·s

FC(F)Cl + CC(F)F
viscosity [mPa·s], 101 kPa
Settings	293.35 K	293.45 K	312.95 K	313.25 K
x1 = 0.159	–	0.178	0.1422	–
x1 = 0.34	–	0.1749	–	0.1424
x1 = 0.534	0.1805	–	–	0.1485

O=CC(Cl)(Cl)Cl + CCC(C)=O
viscosity [mPa·s], 101 kPa
Settings	x1 = 0.1183	x1 = 0.2018	x1 = 0.3006	x1 = 0.3959	x1 = 0.5007	x1 = 0.5979	x1 = 0.6814	x1 = 0.7599	x1 = 0.847
298.15 K	0.5125	0.5629	0.6247	0.6758	0.7457	0.8097	0.8541	0.8952	0.9503
323.15 K	0.3989	0.4323	0.4784	0.5132	0.5619	0.6053	0.6241	0.6588	0.7035

O=CC(Cl)(Cl)Cl + CCCC(C)=O
viscosity [mPa·s], 101 kPa
Settings	x1 = 0.1199	x1 = 0.2489	x1 = 0.3714	x1 = 0.5058	x1 = 0.6071	x1 = 0.7288	x1 = 0.8116	x1 = 0.9001
298.15 K	0.524	0.595	0.6722	0.7399	0.8153	0.8727	0.9343	0.9935
323.15 K	0.4084	0.458	0.5112	0.5571	0.6	0.6402	0.6822	0.7258

CCCCCCCCCCCCCCCC + CCCCCC
Settings	viscosity [mPa·s]
298.09 K, 100 kPa, x1 = 0.8	2.236
298.12 K, 100 kPa, x1 = 0.4	0.991
298.15 K, 100 kPa, x1 = 0.6	1.518
298.15 K, 101 kPa, x1 = 0.1995	0.6062
298.15 K, 101 kPa, x1 = 0.3978	1.017
298.15 K, 101 kPa, x1 = 0.5746	1.453
298.15 K, 101 kPa, x1 = 0.8011	2.209
298.15 K, 101.33 kPa, x2 = 0.1046	2.659
298.15 K, 101.33 kPa, x2 = 0.1966	2.25
298.15 K, 101.33 kPa, x2 = 0.3	1.88
298.15 K, 101.33 kPa, x2 = 0.4037	1.547
298.15 K, 101.33 kPa, x2 = 0.5142	1.214
298.15 K, 101.33 kPa, x2 = 0.6072	0.987
298.15 K, 101.33 kPa, x2 = 0.7062	0.7626
298.15 K, 101.33 kPa, x2 = 0.8048	0.58
298.15 K, 101.33 kPa, x2 = 0.9026	0.4277
298.19 K, 101 kPa, x2 = 0.1987	2.235
298.19 K, 101 kPa, x2 = 0.3772	1.607
298.19 K, 101 kPa, x2 = 0.5983	1.001
298.19 K, 101 kPa, x2 = 0.7982	0.5933
298.22 K, 100 kPa, x1 = 0.2	0.584
318.26 K, 101 kPa, x2 = 0.1976	1.534
318.26 K, 101 kPa, x2 = 0.3758	1.155
318.26 K, 101 kPa, x2 = 0.5971	0.7591
318.26 K, 101 kPa, x2 = 0.7975	0.4712
323.13 K, 100 kPa, x1 = 0.6	1.028

ClC(Cl)Cl + CCCCCC
viscosity [mPa·s], 101 kPa
Settings	x2 = 0.098	x2 = 0.202	x2 = 0.2873	x2 = 0.4056	x2 = 0.5009	x2 = 0.5885	x2 = 0.7253	x2 = 0.8116	x2 = 0.9008
293.15 K	0.5269	0.4839	0.4558	0.42	0.3965	0.3762	0.3509	0.3368	0.3242
298.15 K	0.5028	0.4606	0.434	0.3996	0.3781	0.3582	0.3341	0.3206	0.309
303.15 K	0.4779	0.4396	0.4142	0.3811	0.3628	0.3413	0.3186	0.3056	0.2945
313.15 K	0.4362	0.3998	0.3783	0.3472	0.3308	0.311	0.2912	0.2786	0.2683

CCCCCCCCCCCCCCCC + CCCCCCC
Settings	viscosity [mPa·s]
293.17 K, 101 kPa, x1 = 0.097	0.553
293.17 K, 101 kPa, x1 = 0.195	0.73
293.17 K, 101 kPa, x1 = 0.492	1.475
293.17 K, 101 kPa, x1 = 0.785	2.597
298 K, 101 kPa, x2 = 0.5	1.377
298.15 K, 101 kPa, x1 = 0.211	0.7064
298.15 K, 101 kPa, x1 = 0.4067	1.102
298.15 K, 101 kPa, x1 = 0.5795	1.552
298.15 K, 101 kPa, x1 = 0.7867	2.202
298.15 K, 101.33 kPa, x2 = 0.1067	2.618
298.15 K, 101.33 kPa, x2 = 0.1981	2.268
298.15 K, 101.33 kPa, x2 = 0.3001	1.922
298.15 K, 101.33 kPa, x2 = 0.4055	1.603
298.15 K, 101.33 kPa, x2 = 0.5077	1.307
298.15 K, 101.33 kPa, x2 = 0.607	1.08
298.15 K, 101.33 kPa, x2 = 0.7086	0.8554
298.15 K, 101.33 kPa, x2 = 0.8028	0.68
298.15 K, 101.33 kPa, x2 = 0.9019	0.5217
303.15 K, 101 kPa, x1 = 0.097	0.485
303.15 K, 101 kPa, x1 = 0.195	0.632
303.15 K, 101 kPa, x1 = 0.492	1.233
303.15 K, 101 kPa, x1 = 0.785	2.079
318 K, 101 kPa, x2 = 0.5	1.005

CCCCCCCCCCCCCCCC + CCCCCCCC
Settings	viscosity [mPa·s]
298.15 K, 101.33 kPa, x2 = 0.1039	2.656
298.15 K, 101.33 kPa, x2 = 0.2122	2.305
298.15 K, 101.33 kPa, x2 = 0.3109	1.973
298.15 K, 101.33 kPa, x2 = 0.4114	1.682
298.15 K, 101.33 kPa, x2 = 0.5033	1.452
298.15 K, 101.33 kPa, x2 = 0.6068	1.205
298.15 K, 101.33 kPa, x2 = 0.7096	0.982
298.15 K, 101.33 kPa, x2 = 0.8067	0.7957
298.15 K, 101.33 kPa, x2 = 0.9049	0.6421
318.16 K, 101 kPa, x1 = 0.15	0.5758
318.16 K, 101 kPa, x1 = 0.3499	0.8378
318.16 K, 101 kPa, x1 = 0.5001	1.073
318.16 K, 101 kPa, x1 = 0.6398	1.317
318.16 K, 101 kPa, x1 = 0.7996	1.627

CCCCCCCCCCCCCCCC + CCCCCCCCCC
Settings	viscosity [mPa·s]
298.15 K, 101.33 kPa, x2 = 0.1051	2.749
298.15 K, 101.33 kPa, x2 = 0.2075	2.481
298.15 K, 101.33 kPa, x2 = 0.3045	2.2
298.15 K, 101.33 kPa, x2 = 0.4045	1.976
298.15 K, 101.33 kPa, x2 = 0.5081	1.733
298.15 K, 101.33 kPa, x2 = 0.6095	1.53
298.15 K, 101.33 kPa, x2 = 0.7051	1.336
298.15 K, 101.33 kPa, x2 = 0.8037	1.17
298.15 K, 101.33 kPa, x2 = 0.9041	0.9885
313.15 K, 100 kPa, x2 = 0.35	1.6
313.15 K, 100 kPa, x2 = 0.61	1.18
313.15 K, 100 kPa, x2 = 0.83	0.9
